From patent US10112906B2, “1-aryl-3-alkylpyrazole insecticides” (E. I. DU PONT DE NEMOURS AND COMPANY, priority 2013, dated 2018)

Experiments:
Format in all cases: in vivo
[1] = tested on: Western Flower Thrips (Frankliniellla occidentalis (Pergande)); experiment: Test F: control of Western Flower Thrips through contact and/or systemic means; conditions: sprayed at 250 ppm; Soleil bean plant, adult thrips; held for 6 days
Protocol: (§1) Test compounds were formulated using a solution containing 10% acetone, 90% water and 300 ppm X-77® Spreader Lo-Foam Formula non-ionic surfactant containing alkylarylpolyoxyethylene, free fatty acids, glycols and isopropanol (Loveland Industries, Inc. Greeley, Colo., USA). The formulated compounds were applied in 1 mL of liquid through a SUJ2 atomizer nozzle with ⅛ JJ custom body (Spraying Systems Co. Wheaton, Ill., USA) positioned 1.27 cm (0.5 inches) above the top of each test unit. Test compounds were sprayed at the rates indicated, and each test was replicated three times.
For evaluating control of the Western Flower Thrips (Frankliniellla occidentalis (Pergande)) through contact and/or systemic means, the test unit consisted of a small open container with a 5-7-day-old Soleil bean plant inside.
Test compounds were formulated and sprayed at 250 ppm. After spraying, the test units were allowed to dry for 1 hour, and then 22-27 adult thrips were added to each unit. A black, screened cap was placed on top, and the test units were held for 6 days at 25° C. and 45-55% relative humidity.

[2] = tested on: fall armyworm (Spodoptera frugiperda (J. E. Smith)); experiment: Test B: control of fall armyworm, foliar spray on corn (maize) plant; conditions: 1-day-old larvae, assessed after 6 days
Protocol: as §1
For evaluating control of fall armyworm (Spodoptera frugiperda (J. E. Smith)) the test unit consisted of a small open container with a 4-5-day-old corn (maize) plant inside. This was pre-infested with 10-15 1-day-old larvae on a piece of insect diet.
Test compounds were formulated and sprayed at 250 and/or 50 ppm. After spraying of the formulated test compound, the test units were maintained in a growth chamber for 6 days at 25° C. and 70% relative humidity. Plant feeding damage was then visually assessed based on foliage consumed, and larvae were assessed for mortality.

[3] = tested on: corn planthopper (Peregrinus maidis (Ashmead)); experiment: Test C: control of corn planthopper through contact and/or systemic means; conditions: 144 h, corn (maize) plant, nymphs, assessed after 6 days; for mortality at 250 ppm: sprayed at 250 ppm
Protocol: as §1
For evaluating control of corn planthopper (Peregrinus maidis (Ashmead)) through contact and/or systemic means, the test unit consisted of a small open container with a 3-4-day-old corn (maize) plant inside. White sand was added to the top of the soil prior to application of the test compound.
Test compounds were formulated and sprayed at 250 and/or 50 ppm. After spraying of the formulated test compound, the test units were allowed to dry for 1 h before they were post-infested with ˜15-20 nymphs (18-to-21-day-old). A black, screened cap was placed on the top of each test unit, and the test units were held for 6 days in a growth chamber at 22-24° C. and 50-70% relative humidity. Each test unit was then visually assessed for insect mortality.

[4] = tested on: green peach aphid (Myzus persicae (Sulzer)); experiment: Test E: control of green peach aphid through contact and/or systemic means; conditions: 144 h, radish plant, assessed after 6 days; for mortality at 250 ppm: sprayed at 250 ppm
Protocol: as §1
For evaluating control of green peach aphid (Myzus persicae (Sulzer)) through contact and/or systemic means, the test unit consisted of a small open container with a 12-15-day-old radish plant inside. This was pre-infested by placing on a leaf of the test plant 30-40 aphids on a piece of leaf excised from a culture plant (cut-leaf method). The aphids moved onto the test plant as the leaf piece desiccated. After pre-infestation, the soil of the test unit was covered with a layer of sand.
Test compounds were formulated and sprayed at 250 and/or 50 ppm. After spraying of the formulated test compound, each test unit was allowed to dry for 1 hour and then a black, screened cap was placed on top. The test units were held for 6 days in a growth chamber at 19-21° C. and 50-70% relative humidity. Each test unit was then visually assessed for insect mortality.

[5] = tested on: diamondback moth (Plutella xylostella (L.)); experiment: Test A: control of diamondback moth, foliar spray on mustard plant; conditions: neonate larvae, assessed after 6 days
Protocol: as §1
For evaluating control of diamondback moth (Plutella xylostella (L.)) the test unit consisted of a small open container with a 12-14-day-old mustard plant inside. This was pre-infested with ˜50 neonate larvae that were dispensed into the test unit via corn cob grits using an inoculator. The larvae moved onto the test plant after being dispensed into the test unit.
Test compounds were formulated and sprayed at 250 and/or 50 ppm. After spraying of the formulated test compound, each test unit was allowed to dry for 1 hour and then a black, screened cap was placed on top. The test units were held for 6 days in a growth chamber at 25° C. and 70% relative humidity. Plant feeding damage was then visually assessed based on foliage consumed, and larvae were assessed for mortality.

[6] = tested on: potato leafhopper (Empoasca fabae (Harris)); experiment: Test D: control of potato leafhopper through contact and/or systemic means; conditions: 144 h, Soleil bean plant, adults, assessed after 6 days; for mortality at 50 ppm: sprayed at 50 ppm; for mortality at 250 ppm: sprayed at 250 ppm
Protocol: as §1
For evaluating control of potato leafhopper (Empoasca fabae (Harris)) through contact and/or systemic means, the test unit consisted of a small open container with a 5-6-day-old Soleil bean plant (primary leaves emerged) inside. White sand was added to the top of the soil, and one of the primary leaves was excised prior to application of the test compound.
Test compounds were formulated and sprayed at 250 and/or 50 ppm. After spraying of the formulated test compound, the test units were allowed to dry for 1 hour before they were post-infested with 5 potato leafhoppers (18-to-21-day-old adults). A black, screened cap was placed on the top of the test unit, and the test units were held for 6 days in a growth chamber at 20° C. and 70% relative humidity. Each test unit was then visually assessed for insect mortality.

SMILES | control efficacy (30% or less plant damage and/or 100% mortality) [1] | control efficacy (40% or less feeding damage and/or 100% mortality) ([2]; sprayed at 50 ppm) | control efficacy (40% or less feeding damage and/or 100% mortality) ([2]; sprayed at 250 ppm) | mortality at 250 ppm [3] | mortality at 250 ppm [4] | control efficacy (40% or less feeding damage and/or 100% mortality) ([5]; sprayed at 50 ppm) | control efficacy (40% or less feeding damage and/or 100% mortality) ([5]; sprayed at 250 ppm) | mortality at 50 ppm [6] | mortality at 250 ppm [6] | mortality at 50 ppm ([4]; sprayed at 50 ppm) | mortality at 50 ppm ([3]; sprayed at 50 ppm)
FC(F)(F)c1ccnc(-n2cc(CN3CCC(C(F)(F)F)CC3)c(C3CCCC3)n2)c1 [Compound 25, 2-[3-cyclopentyl-4-[[4-(trifluoromethyl)-1-piperidinyl]methyl]-1H-pyrazol-1-yl]-4-(trifluoromethyl)pyridine] | very good to excellent levels of control efficacy | very good to excellent levels of control efficacy | very good to excellent levels of control efficacy | ≥ 80% | ≥ 80% | very good to excellent levels of control efficacy | very good to excellent levels of control efficacy | ≥ 80% | ≥ 80% |  | 
N#CC1CCN(Cc2cn(-c3cc(C(F)(F)F)ccn3)nc2C2CCCC2)CC1 [Compound 26, 1-[[3-cyclopentyl-1-[4-(trifluoromethyl)-2-pyridinyl]-1H-pyrazol-4-yl]methyl]-4-piperidinecarbonitrile] | very good to excellent levels of control efficacy | very good to excellent levels of control efficacy | very good to excellent levels of control efficacy |  | ≥ 80% | very good to excellent levels of control efficacy | very good to excellent levels of control efficacy |  | ≥ 80% | ≥ 80% | 
N#CC1CCN(Cc2cn(-c3ccc(Cl)c(Cl)c3)nc2C2CCC2)CC1 [Compound 27] | very good to excellent levels of control efficacy | very good to excellent levels of control efficacy | very good to excellent levels of control efficacy |  |  | very good to excellent levels of control efficacy | very good to excellent levels of control efficacy |  |  |  | 
CC(C)c1nn(-c2cc(C(F)(F)F)ccn2)cc1CN1CCC(C(F)(F)F)CC1 [Compound 54, 2-[3-(1-methylethyl)-4-[[4-(trifluoromethyl)-1-piperidinyl]methyl]-1H-pyrazol-1-yl]-4-(trifluoromethyl)pyridine] |  |  |  | ≥ 80% |  |  |  | ≥ 80% | ≥ 80% |  | ≥ 80%
